Experiments:
[1] = target: NPM-ALK (Homo sapiens, UniProt Q9UM73); assay: In vivo pharmacodynamics: ALK phosphorylation in Karpas 299 tumors (immunoblotting); design: species or system mice
Description: Mice bearing xenograft tumors were humanely euthanized and tumors were resected and snap frozen in liquid nitrogen and stored at −80° C. Frozen tumor samples were processed at 4° C. in 1× Cell Lysis Buffer (Cell Signaling Technologies) to extract proteins. SDS loading samples were prepared by adding one volume of 4×LDS Sample Buffer (Life Technologies, Inc) to three volumes of protein lysate. Tumor SDS protein samples were processed by SDS-PAGE and immunoblotted with rabbit anti-phosphorylated ALK and mouse anti-actin antibodies (Cell Signaling Technologies). The signals from immunoblot were detected by C-DiGit Blot Scanner from LI-COR and the signal intensity were quantified using the Image Studio Digit software (LI-COR).
The level of ALK phosphorylation was determined by immunoblotting combined with signal quantification by the Image Studio Digit Software. […] At the dose of 15 mg/kg, ALK phosphorylation was reduced to <10% of the control level at 3 hours post oral administration and was maintained at about 21% of the control level at 12 hours post dosing.

[2] = tested on: Ba/F3 TPR-ALK wild type cell line; assay: Cell proliferation assay at Advanced Cellular Dynamics (CellTiter-Glo); assay type: cell-based; conditions: Mus musculus, BaF3, 48 hours
[3] = Body weight of mice in xenograft studies; assay type: in vivo
Description: (§1) Female athymic nude mice and SCID/Beige mice (5-8 weeks of age) were obtained from Charles River Laboratory and were housed in Innovive IVC disposable cages on HEPA filtered ventilated racks with ad libitum access to rodent chow and water. Five million cells in 100 μL, serum-free medium were implanted subcutaneously in the right flank region of the mouse. Karpas299 cells were implanted into the SCID/Beige mice. KM12 cells, NIH3T3 EML4-ALK wild type mutant cells, and NIH3T3 SCD4-ROS1 wild type mutant cells were implanted into the athymic nude mice, respectively. All models except KM12 were implanted with 50% matrigel (Corning, Inc) in the medium. Tumor size and body weight were measured on designated days. Tumor size was measured with an electronic caliper and tumor volume was calculated as the product of length*width^2*0.5.
Female athymic nude mice and SCID/Beige mice (5-8 weeks of age) were obtained from Charles River Laboratory and were housed in Innovive IVC disposable cages on HEPA filtered ventilated racks with ad libitum access to rodent chow and water. Five million cells in 100 μL serum-free medium were implanted subcutaneously in the right flank region of the mouse. Ba/F3 EML4-ALK wild type and G1202R mutant cells, Ba/F3 CD74-ROS1 wild type and G2032R mutant cells were implanted into the SCID/Beige mice. NIH3T3 CD74-ROS1 G2032 mutant cells, NIH3T3 LMNA-TRKA wild type and G595R mutant cells were implanted into the athymic nude mice, respectively. All models were implanted with 50% matrigel (Corning, Inc) in the medium. Tumor size and body weight were measured on designated days. Tumor size was measured with an electronic caliper and tumor volume was calculated as the product of length*width^2*0.5.

[4] = target: T1, BTK (Homo sapiens, UniProt Q06187); assay: Biochemical kinase assay (Reaction Biology); conditions: 10 μM ATP
T1 construct: purchased Reaction Biology Corporation (contract assay)
T1 sequence (Q06187 whole entry): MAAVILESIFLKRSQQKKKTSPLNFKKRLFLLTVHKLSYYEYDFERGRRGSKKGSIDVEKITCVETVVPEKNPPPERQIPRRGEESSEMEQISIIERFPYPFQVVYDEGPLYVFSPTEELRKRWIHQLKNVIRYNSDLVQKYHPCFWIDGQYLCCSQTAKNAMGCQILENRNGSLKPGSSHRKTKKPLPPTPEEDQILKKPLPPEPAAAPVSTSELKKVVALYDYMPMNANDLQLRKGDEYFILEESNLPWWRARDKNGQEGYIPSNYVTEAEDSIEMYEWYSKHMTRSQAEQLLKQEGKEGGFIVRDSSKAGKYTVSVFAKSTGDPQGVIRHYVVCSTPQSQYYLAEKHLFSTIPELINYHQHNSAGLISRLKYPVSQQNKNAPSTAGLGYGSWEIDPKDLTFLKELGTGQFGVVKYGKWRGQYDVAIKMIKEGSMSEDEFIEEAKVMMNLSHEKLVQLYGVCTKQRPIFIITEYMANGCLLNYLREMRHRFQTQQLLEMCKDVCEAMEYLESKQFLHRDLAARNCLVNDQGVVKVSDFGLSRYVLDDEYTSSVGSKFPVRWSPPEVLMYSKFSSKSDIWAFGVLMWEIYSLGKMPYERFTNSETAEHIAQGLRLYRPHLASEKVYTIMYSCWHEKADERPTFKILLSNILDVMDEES
Description: Specific kinase/substrate pairs along with required cofactors were prepared in reaction buffer; 20 mM Hepes pH 7.5, 10 mM MgCl2, 1 mM EGTA, 0.02% Brij35, 0.02 mg/ml BSA, 0.1 mM Na3VO4, 2 mM DTT, 1% DMSO (for specific details of individual kinase reaction components see Supplementary Table 2). Compounds were delivered into the reaction, followed ˜20 minutes later by addition of a mixture of ATP (Sigma, St. Louis Mo.) and ^33P ATP (Perkin Elmer, Waltham Mass.) to a final concentration of 10 μM. Reactions were carried out at room temperature for 120 min, followed by spotting of the reactions onto P81 ion exchange filter paper (Whatman Inc., Piscataway, N.J.). […] IC50 values and curve fits were obtained using Prism (GraphPad Software).

[5] = tested on: AKT; assay: Immunoblotting downstream signaling, KM12 cells; assay type: cell-based; conditions: Homo sapiens; KM12 cell line; read-out: downstream AKT phosphorylation IC50
Description: (§2) NSCLC cell line H2228 (harboring endogenous EML4-ALK fusion gene), HCC78 cells (harboring endogenous SLC34A2-ROS1 fusion gene), Karpas-299 cells (harboring endogenous NPM-ALK fusion gene) or SET-2 (harboring endogenous JAK2V617F activating mutation) were cultured in RPMI medium, and KM12 (harboring endogenous TPM3-TRKA fusion gene) cell line was cultured in DMEM medium, both supplemented with 10% fetal bovine serum and 100 U/mL of penicillin/streptomycin. Ba/F3 and NIH3T3 cells stably expressing ALK or ROS1 (WT or mutant) were culture as mentioned above. […] Protein lysates (approximately 20 μg) was resolved on 4-12% Bolt Bis-Tris precasted gels with MES running buffer (Life Technologies), transferred to nitrocellulose membranes using Trans-Blot Turbo Transfer System (Bio-Rad) and detected with antibodies targeting phosphorylated ALK Y1604 (Cell Signaling Technology), total ALK (Cell Signaling Technology), phosphorylated ROS1 and total ROS1 (Cell Signaling Technology), phosphorylated TRK A/B (Cell Signaling Technology), total TRKA antibody (Santa Cruz Biotechnology), phosphorylated STAT3 and STAT5, total STAT3 and STAT5 (Cell Signaling Technology), phosphorylated AKT (Cell Signaling Technology), total AKT (Cell Signaling Technology), phosphorylated ERK (Cell Signaling Technology), total ERK (Cell Signaling Technology) and Tubulin (Sigma). […]

[6] = tested on: ERK; assay: Immunoblotting downstream signaling, KM12 cells; assay type: cell-based; conditions: Homo sapiens; KM12 cell line; read-out: downstream ERK phosphorylation IC50
Description: as §2

[7] = tested on: NIH3T3 SDC4-ROS1 WT tumors; assay: NIH3T3 SDC4-ROS1 WT subcutaneous xenograft model; assay type: in vivo, athymic nude mice; conditions: 26 days
Description: as §1
The SDC4-ROS1 fusion gene is considered as the driver for tumor progression in NSCLC. […] The control group of mice were given vehicle only. Tumor volume was measured by caliper on the indicated days and is shown at mean±sem in FIG. 9.

[8] = tested on: Ba/F3 EML4-ALK wild type cell line; assay: Cell proliferation assay (CellTiter-Glo); assay type: cell-based; conditions: Mus musculus, 72 hours

Sequence of NPM-ALK (Q9UM73 with tags, fused parts or gaps): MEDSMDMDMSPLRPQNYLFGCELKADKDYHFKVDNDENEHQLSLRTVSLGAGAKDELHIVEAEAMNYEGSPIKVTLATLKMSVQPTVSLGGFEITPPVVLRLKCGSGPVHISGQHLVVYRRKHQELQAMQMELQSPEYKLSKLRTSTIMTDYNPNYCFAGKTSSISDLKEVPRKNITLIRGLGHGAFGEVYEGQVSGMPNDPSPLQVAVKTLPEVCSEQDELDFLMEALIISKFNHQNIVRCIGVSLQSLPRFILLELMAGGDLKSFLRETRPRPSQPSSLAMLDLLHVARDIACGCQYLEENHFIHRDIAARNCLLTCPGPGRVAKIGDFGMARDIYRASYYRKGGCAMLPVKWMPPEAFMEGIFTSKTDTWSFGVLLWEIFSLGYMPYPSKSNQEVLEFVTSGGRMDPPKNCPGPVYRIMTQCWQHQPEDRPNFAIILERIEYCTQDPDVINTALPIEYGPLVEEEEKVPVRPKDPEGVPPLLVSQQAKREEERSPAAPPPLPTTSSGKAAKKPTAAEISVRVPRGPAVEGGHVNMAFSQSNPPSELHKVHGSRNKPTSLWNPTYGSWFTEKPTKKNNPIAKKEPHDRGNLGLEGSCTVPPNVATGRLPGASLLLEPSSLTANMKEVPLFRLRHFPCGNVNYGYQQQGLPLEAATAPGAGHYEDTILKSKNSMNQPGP

Question: For `C[C@H]1CNC(=O)c2cnn3ccc(nc23)N[C@H](C)c2cc(F)ccc2O1` [Compound 1, (7S,13R)-11-fluoro-7,13-dimethyl-6,7,13,14-tetrahydro-1,15-ethenopyrazolo[4,3-f][1,4,8,10]benzoxatriazacyclotridecin-4(5H)-one], which “ALK phosphorylation, % of the control level” value (shortened to “ALK phosphorylation, %”) ([1]; 15 mg/kg BID 7 days, 3 hours post oral administration) is on record?
Answer: The value was < 10%.

Question: And the “ALK phosphorylation, %” value ([1]; 15 mg/kg BID 7 days, 12 hours post dosing)?
Answer: The value was “about 21%”.

Question: And the “ALK phosphorylation, %” value ([1]; 50 mg/kg BID 7 days, 3 hours post oral administration)?
Answer: Its value is < 5%.

Question: What about the “ALK phosphorylation, %” value ([1]; 50 mg/kg BID 7 days, 12 hours post dosing) of the same molecule?
Answer: Its value is “about 10%”.

Question: What about the IC50 [2] of the same molecule?
Answer: The IC50 was 0.012 µM.

Question: What about the “Body weight of the mice” value ([3]; Ba/F3 CD74-ROS1 G2032R model, 15 and 75 mg/kg BID, 11 days) of the same molecule?
Answer: The value was “no body weight loss was observed”.

Question: What about the “Body weight of the mice” value ([3]; Ba/F3 CD74-ROS1 WT model, 15 and 75 mg/kg BID, 12 days) of the same molecule?
Answer: The value was “no body weight loss was observed”.

Question: What about the “Body weight of the mice” value ([3]; Ba/F3 EML4-ALK G1202R model, 15 and 75 mg/kg BID, 17 days) of the same molecule?
Answer: Its value is “no body weight loss was observed”.

Question: And the “Body weight of the mice” value ([3]; Ba/F3 EML4-ALK WT model, 15 and 75 mg/kg BID, 14 days)?
Answer: Its value is “no body weight loss was observed”.

Question: And the “Body weight of the mice” value ([3]; KM12 model Example 13, 15 and 75 mg/kg BID, seven days)?
Answer: Its value is “No loss of body weight”.

Question: And the “Body weight of the mice” value ([3]; KM12 model Example 15, 1, 3 and 15 mg/kg BID, seven days)?
Answer: Its value is “No loss of body weight”.

Question: What about the “Body weight of the mice” value ([3]; Karpas 299 model, 15 and 50 mg/kg BID, seven days) of the same molecule?
Answer: The value was “no body weight loss was observed”.

Question: And the “Body weight of the mice” value ([3]; NIH3T3 EML4-ALK WT model, 15 and 50 mg/kg BID, 12 days)?
Answer: The value was “no body weight loss was observed”.

Question: And the “Body weight of the mice” value ([3]; NIH3T3 LMNA-TRKA G595R model, 3, 15 and 60 mg/kg BID, five days)?
Answer: The value was “no body weight loss was observed”.

Question: What about the “Body weight of the mice” value ([3]; NIH3T3 LMNA-TRKA WT model, 3 and 15 mg/kg BID, five days) of the same molecule?
Answer: The value was “No loss of body weight”.

Question: What about the IC50 [4] of the same molecule?
Answer: Its IC50 is 0.0237 µM.

Question: What about the IC50 [5] of the same molecule?
Answer: The IC50 was ~0.0003 µM.

Question: And the IC50 [6]?
Answer: Its IC50 is ~0.0003 µM.

Question: And the “mice exhibiting tumor regression” value ([7]; 15 mg/kg BID orally)?
Answer: Its value is 7 of 8.

Question: What about the “tumor regression (REG)” value ([7]; 15 mg/kg BID orally) of the same molecule?
Answer: Its value is 39%.

Question: What about the “mice exhibiting tumor regression” value ([7]; 50 mg/kg BID orally) of the same molecule?
Answer: Its value is 7 of 7.

Question: What about the “tumor regression (REG)” value ([7]; 50 mg/kg BID orally) of the same molecule?
Answer: Its value is 69%.

Question: What about the IC50 [8] of the same molecule?
Answer: Its IC50 is 0.0178 µM.
